In patent publication US20150299796A1, “PREDICTION OF TREATMENT RESPONSE TO JAK/STAT INHIBITOR” (priority 2012, published 2015):

Legend:
UKE-1 tumor xenograft = UKE-1 tumor xenograft study, modulation of 4-gene signature in tumor; format: in vivo, female NOD.SCID mice; settings: single dose P.O. 60 mg/kg; tumor samples at 4 and 24 hours (FIG. 6)
Procedure: The modulation of gene signature by (R)-3-cyclopentyl-3-[4-(7H-pyrrolo[2,3-d]pyrimidin-4-yl)-1H-pyrazol-1-yl]propanenitrile (ruxolitinib) was further examined in vivo. UKE-1 cells were implanted in female NOD.SCID mice (Harlan) at 1x10e7 cells/mouse. Single dose of (R)-3-cyclopentyl-3-[4-(7H-pyrrolo[2,3-d]pyrimidin-4-yl)-1H-pyrazol-1-yl]propanenitrile was administered P.O. at 60 mg/kg when tumors reached ˜500 mg. Tumor samples were collected at 4 and 24 hours after treatment. The modulation of pSTAT5 in tumor lysate was examined by Western.

[1] = system: four signature genes (PIM1, CISH, SOCS2, ID1); assay: qPCR expression of the four signature genes in hematologic tumor cell lines after treatment; format: cell-based; settings: 0.2 μM or 1 μM, 4 hr and 24 hr
Procedure: (§1) […] hematologic tumor cell lines (5 positive for pSTAT5 (AML-193, Hel 92.1.7, Set2, TF-1 and UKE-1) and 4 negative for pSTAT5 (RPM18226, U937, Relt and PL-21) were treated with (R)-3-cyclopentyl-3-[4-(7H-pyrrolo[2,3-d]pyrimidin-4-yl)-1H-pyrazol-1-yl]propanenitrilem, 0.2 μM or 1 μM, and samples were collected at 4 hr and 24 hr after treatment. Phospho-STAT5 was examined by western blot analysis, and the expression of the four signature genes was determined by qPCR. The RNA expression level (ΔCt) of each individual gene in the signature was determined by subtracting the average Ct for the signature gene from the average Ct of the two housekeeper genes (GUSB and TBP). For the normalized relative expression levels the DMSO control treatment ΔCt were set to one and all other treatments the gene Ct values are relative to this value.

pSTAT5 = assay: Phospho-STAT5 western blot in hematologic tumor cell lines after treatment; format: cell-based; settings: 0.2 μM or 1 μM, 4 hr and 24 hr
Procedure: as §1

[2] = pSTAT5 negative cell lines (RPMI 8226 in FIG. 2A)
[3] = pSTAT5 positive cell lines (TF-1 in FIG. 2B)

N#CC[C@H](C1CCCC1)n1cc(-c2ncnc3[nH]ccc23)cn1 [(R)-3-cyclopentyl-3-[4-(7H-pyrrolo[2,3-d]pyrimidin-4-yl)-1H-pyrazol-1-yl]propanenitrile]
modulation of 4-gene signature in tumor (UKE-1 tumor xenograft): consistent to that observed in vitro | changes in signature gene expression [1, 2]: no clear effect | expression of the signature genes [1, 3]: corresponding reduction of the expression of the signature genes | pSTAT5 modulation (pSTAT5; [2]): no clear effect | pSTAT5 modulation (pSTAT5; [3]): down-modulated pSTAT5
